# Test results reported in US9834542B2, “LXR modulators” (BRISTOL-MYERS SQUIBB COMPANY, priority 2013, dated 2017).
# Target: T1, LXRβ (Homo sapiens, UniProt P55055)
# T1 construct: Co-transfection expression plasmids, comprising full-length LXRα (pCMX-h LXRα[…] or LXRβ (pCMX-hLXRβ)); expressed in transfected cells; host or cells: CV-1 African Green Monkey Kidney Cells
# T1 sequence (P55055 1-460): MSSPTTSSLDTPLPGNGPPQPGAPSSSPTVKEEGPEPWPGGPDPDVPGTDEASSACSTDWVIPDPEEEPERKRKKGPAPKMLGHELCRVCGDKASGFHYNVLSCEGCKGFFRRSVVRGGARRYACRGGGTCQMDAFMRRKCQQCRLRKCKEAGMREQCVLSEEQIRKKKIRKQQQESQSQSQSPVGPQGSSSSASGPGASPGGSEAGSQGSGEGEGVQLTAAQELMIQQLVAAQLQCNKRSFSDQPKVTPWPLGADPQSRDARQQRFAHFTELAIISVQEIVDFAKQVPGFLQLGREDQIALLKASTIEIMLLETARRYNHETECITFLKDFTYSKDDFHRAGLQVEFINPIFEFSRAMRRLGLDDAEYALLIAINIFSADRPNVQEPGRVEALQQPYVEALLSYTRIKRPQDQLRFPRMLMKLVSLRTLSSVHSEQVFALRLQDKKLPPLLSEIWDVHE
# T1 sequence (P19793 1-462 partner): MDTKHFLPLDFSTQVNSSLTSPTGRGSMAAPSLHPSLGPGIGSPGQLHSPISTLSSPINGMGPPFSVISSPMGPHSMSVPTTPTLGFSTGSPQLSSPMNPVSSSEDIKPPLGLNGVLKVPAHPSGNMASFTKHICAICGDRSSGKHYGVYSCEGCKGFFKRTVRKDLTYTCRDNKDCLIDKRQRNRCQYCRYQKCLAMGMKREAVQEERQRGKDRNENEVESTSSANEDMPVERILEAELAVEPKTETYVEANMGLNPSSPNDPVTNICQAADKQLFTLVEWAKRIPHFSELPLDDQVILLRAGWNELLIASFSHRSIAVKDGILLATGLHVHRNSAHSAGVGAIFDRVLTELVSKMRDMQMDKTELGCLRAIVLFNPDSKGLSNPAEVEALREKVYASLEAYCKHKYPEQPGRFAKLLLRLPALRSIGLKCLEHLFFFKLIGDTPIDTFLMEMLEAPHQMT
# Assay: Co-transfection assay (LXRE luciferase reporter), LXRβ
# Assay type: cell-based
# Details: for EC50: CV-1 cells transfected with pCMX-hLXRβ and LXREx1-Tk-Luciferase, 20 hours incubation; for Emax: LXRβ co-transfection, relative to high control 1-(2,4-difluorobenzyl)-2-oxo-6-(4-phenoxyphenyl)-4-(trifluoromethyl)-1,2-dihydropyridine-3-carbonitrile, read-out: % Efficacy
# Procedure, shortened: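 CV-1 cells transiently co-transfected with full-length human LXRβ (or LXRα), LXREx1-Tk-luciferase reporter and β-galactosidase control; compound added (10 μM final in single-point, 11-point ½-log curves, ≤0.5% DMSO) for 20 h at 37 °C. Luciferase read; EC50 from four-parameter fit, efficacy relative to reference agonist high control.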
Compound,EC50 [nM],Emax [%]
"Cc1ccc(Cc2cnnn2-c2cc(-c3cccc(S(C)(=O)=O)c3)ccc2-n2cc(C(F)(F)F)nc2C)cc1 [Example 126, 5-[(4-methylphenyl)methyl]-1-{3′-(methylsulfonyl)-4-[2-methyl-4-(trifluoromethyl)-1H-imidazol-1-yl]biphenyl-3-yl}-1H-1,2,3-triazole]",270,93
"CNS(=O)(=O)c1cccc(-c2ccc(-n3cc(C(F)F)nc3C)c(-n3nncc3C(C)c3ccc(Cl)cc3)c2)c1 (stereo not shown) [Example 130, 3′-{5-[1-(4-chlorophenyl)ethyl]-1H-1,2,3-triazol-1-yl}-4′-[4-(difluoromethyl)-2-methyl-1H-imidazol-1-yl]-N-methylbiphenyl-3-sulfonamide]",896,68
"CCS(=O)(=O)c1cccc(-c2ccc(-n3cc(C(F)F)nc3C)c(-n3nncc3C(C)c3ccc(Cl)cc3)c2)c1 (stereo not shown) [Example 131, 5-[1-(4-chlorophenyl)ethyl]-1-{4-[4-(difluoromethyl)-2-methyl-1H-imidazol-1-yl]-3′-(ethylsulfonyl)biphenyl-3-yl}-1H-1,2,3-triazole]",821,77
"Cc1nc(C(F)F)cn1-c1ccc(-c2cccc(S(=O)(=O)N(C)C)c2)cc1-n1nncc1C(C)c1ccc(Cl)cc1 (stereo not shown) [Example 132, 3′-{5-[1-(4-chlorophenyl)ethyl]-1H-1,2,3-triazol-1-yl}-4′-[4-(difluoromethyl)-2-methyl-1H-imidazol-1-yl]-N,N-dimethylbiphenyl-3-sulfonamide]",431,61
"Cc1nc(C(F)(F)F)cn1-c1ccc(-c2cc(F)c(CO)c(S(C)(=O)=O)c2)cc1-n1nncc1C(=O)c1cccc(C(F)(F)F)c1 [Example 136, (1-{3′-fluoro-4′-(hydroxymethyl)-5′-(methylsulfonyl)-4-[2-methyl-4-(trifluoromethyl)-1H-imidazol-1-yl]biphenyl-3-yl}-1H-1,2,3-triazol-5-yl)[3-(trifluoromethyl)phenyl]meth-anone]",764,69
"Cc1nc(C(F)(F)F)cn1-c1ccc(-c2cccc(S(C)(=O)=O)c2)cc1-n1nncc1C(=O)c1cccc(C(F)(F)F)c1 [Example 137, (1-{3′-(methylsulfonyl)-4-[2-methyl-4-(trifluoromethyl)-1H-imidazol-1-yl]biphenyl-3-yl}-1H-1,2,3-triazol-5-yl)[3-(trifluoromethyl)phenyl]meth-anone]",1090,63
"Cc1nc(C(F)(F)F)cn1-c1ccc(-c2cccc(S(C)(=O)=O)c2)cc1-n1nncc1C(=O)c1ccc(C(F)(F)F)cc1 [Example 138, (1-{3′-(methylsulfonyl)-4-[2-methyl-4-(trifluoromethyl)-1H-imidazol-1-yl]biphenyl-3-yl}-1H-1,2,3-triazol-5-yl)[4-(trifluoromethyl)phenyl]meth-anone]",1290,99
"Cc1nc(C(F)(F)F)cn1-c1ccc(-c2cc(F)c(CO)c(S(C)(=O)=O)c2)cc1-n1nncc1C(=O)c1ccc(Cl)cc1 [Example 140, (4-chlorophenyl)(1-{3′-fluoro-4′-(hydroxymethyl)-5′-(methylsulfonyl)-4-[2-methyl-4-(trifluoromethyl)-1H-imidazol-1-yl]biphenyl-3-yl}-1H-1,2,3-triazol-5-yl)methanone]",383,64
"Cc1nc(C(F)(F)F)cn1-c1ccc(-c2cc(F)c(CO)c(S(C)(=O)=O)c2)cc1-n1nncc1C(=O)c1ccc(C(F)(F)F)cc1 [Example 141, (1-{3′-fluoro-4′-(hydroxymethyl)-5′-(methylsulfonyl)-4-[2-methyl-4-(trifluoromethyl)-1H-imidazol-1-yl]biphenyl-3-yl}-1H-1,2,3-triazol-5-yl)[4-(trifluoromethyl)phenyl]meth-anone]",619,106
"CCS(=O)(=O)c1cccc(-c2ccc(-n3cc(C(F)(F)F)nc3C)c(-n3nncc3C(F)(F)c3ccc(Cl)cc3)c2)c1 [Example 142, 5-[(4-chlorophenyl)(difluoro)methyl]-1-{3′-(ethylsulfonyl)-4-[2-methyl-4-(trifluoromethyl)-1H-imidazol-1-yl]biphenyl-3-yl}-1H-1,2,3-triazole]",205,63
"CS(=O)(=O)c1cccc(-c2ccc(-n3cc(C(F)(F)F)nc3Cl)c(-n3nncc3-c3ccc(Cl)cc3Cl)c2)c1 [Example 143, 1-{4-[2-chloro-4-(trifluoromethyl)-1H-imidazol-1-yl]-3′-(methylsulfonyl)biphenyl-3-yl}-5-(2,4-dichlorophenyl)-1H-1,2,3-triazole]",942,98
"CS(=O)(=O)c1cc(-c2ccc(-n3cc(C(F)(F)F)nc3Cl)c(-n3nncc3-c3ccc(Cl)cc3)c2)cc(F)c1CO [Example 144, {3′-[5-(4-chlorophenyl)-1H-1,2,3-triazol-1-yl]-4′-[2-chloro-4-(trifluoromethyl)-1H-imidazol-1-yl]-3-fluoro-5-(methylsulfonyl)biphenyl-4-yl}methanol]",110,98
"CS(=O)(=O)c1cc(-c2ccc(-n3cc(C(F)(F)F)nc3Cl)c(-n3nncc3-c3ccc(Cl)cc3Cl)c2)cc(F)c1CO [Example 145, {4′-[2-chloro-4-(trifluoromethyl)-1H-imidazol-1-yl]-3′-[5-(2,4-dichlorophenyl)-1H-1,2,3-triazol-1-yl]-3-fluoro-5-(methylsulfonyl)biphenyl-4-yl}methanol]",233,110

# Continued by falling EC50, values first:
EC50 [nM],Emax [%],Compound
1500,65,"Cc1nc(C(F)(F)F)cn1-c1ccc(-c2cccc(S(C)(=O)=O)c2)cc1-n1nncc1CCc1ccc(Cl)cc1 [Example 129, 5-[2-(4-chlorophenyl)ethyl]-1-{3′-(methylsulfonyl)-4-[2-methyl-4-(trifluoromethyl)-1H-imidazol-1-yl]biphenyl-3-yl}-1H-1,2,3-triazole]"
1490,71,"Cc1nc(C(F)(F)F)cn1-c1ccc(-c2cccc(C(C)(C)C(N)=O)c2)cc1-n1nncc1C(=O)c1ccc(Cl)cc1 [Example 139, 2-(3′-{5-[(4-chlorophenyl)carbonyl]-1H-1,2,3-triazol-1-yl}-4′-[2-methyl-4-(trifluoromethyl)-1H-imidazol-1-yl]biphenyl-3-yl)-2-methylpropanamide]"
886,70,"Cc1nc(C(F)(F)F)cn1-c1ccc(-c2cccc(C(C)(C)C(N)=O)c2)cc1-n1nncc1C(=O)c1ccc(C(F)(F)F)cc1 [Example 135, 2-methyl-2-{4′-[2-methyl-4-(trifluoromethyl)-1H-imidazol-1-yl]-3′-(5-{[4-(trifluoromethyl)phenyl]carbonyl}-1H-1,2,3-triazol-1-yl)biphenyl-3-yl}propanamide]"
776,55,"Cc1nc(C(F)(F)F)cn1-c1ccc(-c2cccc(S(C)(=O)=O)c2)cc1-n1nncc1CC1CCC(C)CC1 (stereo not shown) [Example 127, 5-[(4-methylcyclohexyl)methyl]-1-{3′-(methylsulfonyl)-4-[2-methyl-4-(trifluoromethyl)-1H-imidazol-1-yl]biphenyl-3-yl}-1H-1,2,3-triazole]"
355,83,"Cc1nc(C(F)(F)F)cn1-c1ccc(-c2cccc(S(C)(=O)=O)c2)cc1-n1nncc1Cc1ccc(Cl)cc1 [Example 125, 5-[(4-chlorophenyl)methyl]-1-{3′-(methylsulfonyl)-4-[2-methyl-4-(trifluoromethyl)-1H-imidazol-1-yl]biphenyl-3-yl}-1H-1,2,3-triazole]"
256,71,"Cc1nc(C(F)F)cn1-c1ccc(-c2cccc(S(C)(=O)=O)c2)cc1-n1nncc1C(C)c1ccc(Cl)cc1 (stereo not shown) [Example 133, 5-[1-(4-chlorophenyl)ethyl]-1-{4-[4-(difluoromethyl)-2-methyl-1H-imidazol-1-yl]-3′-(methylsulfonyl)biphenyl-3-yl}-1H-1,2,3-triazole]"
166,68,"Cc1nc(C(F)F)cn1-c1ccc(-c2cc(F)c(CO)c(S(C)(=O)=O)c2)cc1-n1nncc1C(C)c1ccc(Cl)cc1 (stereo not shown) [Example 134, [3′-{5-[1-(4-chlorophenyl)ethyl]-1H-1,2,3-triazol-1-yl}-4′-[4-(difluoromethyl)-2-methyl-1H-imidazol-1-yl]-3-fluoro-5-(methylsulfonyl)biphenyl-4-yl]methanol]"
